Experimental data reported in article PMC10385579, “Design, Synthesis, and Biological Evaluation of Indole-2-carboxamides as Potential Multi-Target Antiproliferative Agents” (Pharmaceuticals, 2023).
Where two headings read alike, the source gives them in different places.

Key:
EGFR [1] = molecular target: T1, EGFR (Homo sapiens, UniProt P00533); set-up: 645–1186); His6 (N); made in house; host or cells: Sf-9 insect cells (baculovirus; pBlueBacHis2B / pFASTBacHTc; conditions: cited from earlier work
T1 sequence (P00533 669-1210): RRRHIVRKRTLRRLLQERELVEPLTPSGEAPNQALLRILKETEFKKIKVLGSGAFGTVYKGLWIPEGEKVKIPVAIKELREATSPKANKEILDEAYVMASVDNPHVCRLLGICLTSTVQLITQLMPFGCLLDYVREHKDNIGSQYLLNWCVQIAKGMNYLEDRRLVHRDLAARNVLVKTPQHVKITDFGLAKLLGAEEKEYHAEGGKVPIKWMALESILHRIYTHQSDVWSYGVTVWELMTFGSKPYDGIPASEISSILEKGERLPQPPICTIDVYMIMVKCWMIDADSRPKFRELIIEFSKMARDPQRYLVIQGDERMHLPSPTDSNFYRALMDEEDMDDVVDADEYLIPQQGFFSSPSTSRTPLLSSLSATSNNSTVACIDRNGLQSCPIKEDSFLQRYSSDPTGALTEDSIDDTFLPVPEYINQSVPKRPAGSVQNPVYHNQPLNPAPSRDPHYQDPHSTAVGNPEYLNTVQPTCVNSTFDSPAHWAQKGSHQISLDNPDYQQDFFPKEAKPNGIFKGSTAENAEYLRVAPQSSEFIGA

VEGFR-2 [2] = molecular target: T2, VEGFR-2 (Homo sapiens, UniProt P35968); set-up: purchased Carna Biosciences, Inc; conditions: cited from earlier work
T2 sequence (P35968 20-1356): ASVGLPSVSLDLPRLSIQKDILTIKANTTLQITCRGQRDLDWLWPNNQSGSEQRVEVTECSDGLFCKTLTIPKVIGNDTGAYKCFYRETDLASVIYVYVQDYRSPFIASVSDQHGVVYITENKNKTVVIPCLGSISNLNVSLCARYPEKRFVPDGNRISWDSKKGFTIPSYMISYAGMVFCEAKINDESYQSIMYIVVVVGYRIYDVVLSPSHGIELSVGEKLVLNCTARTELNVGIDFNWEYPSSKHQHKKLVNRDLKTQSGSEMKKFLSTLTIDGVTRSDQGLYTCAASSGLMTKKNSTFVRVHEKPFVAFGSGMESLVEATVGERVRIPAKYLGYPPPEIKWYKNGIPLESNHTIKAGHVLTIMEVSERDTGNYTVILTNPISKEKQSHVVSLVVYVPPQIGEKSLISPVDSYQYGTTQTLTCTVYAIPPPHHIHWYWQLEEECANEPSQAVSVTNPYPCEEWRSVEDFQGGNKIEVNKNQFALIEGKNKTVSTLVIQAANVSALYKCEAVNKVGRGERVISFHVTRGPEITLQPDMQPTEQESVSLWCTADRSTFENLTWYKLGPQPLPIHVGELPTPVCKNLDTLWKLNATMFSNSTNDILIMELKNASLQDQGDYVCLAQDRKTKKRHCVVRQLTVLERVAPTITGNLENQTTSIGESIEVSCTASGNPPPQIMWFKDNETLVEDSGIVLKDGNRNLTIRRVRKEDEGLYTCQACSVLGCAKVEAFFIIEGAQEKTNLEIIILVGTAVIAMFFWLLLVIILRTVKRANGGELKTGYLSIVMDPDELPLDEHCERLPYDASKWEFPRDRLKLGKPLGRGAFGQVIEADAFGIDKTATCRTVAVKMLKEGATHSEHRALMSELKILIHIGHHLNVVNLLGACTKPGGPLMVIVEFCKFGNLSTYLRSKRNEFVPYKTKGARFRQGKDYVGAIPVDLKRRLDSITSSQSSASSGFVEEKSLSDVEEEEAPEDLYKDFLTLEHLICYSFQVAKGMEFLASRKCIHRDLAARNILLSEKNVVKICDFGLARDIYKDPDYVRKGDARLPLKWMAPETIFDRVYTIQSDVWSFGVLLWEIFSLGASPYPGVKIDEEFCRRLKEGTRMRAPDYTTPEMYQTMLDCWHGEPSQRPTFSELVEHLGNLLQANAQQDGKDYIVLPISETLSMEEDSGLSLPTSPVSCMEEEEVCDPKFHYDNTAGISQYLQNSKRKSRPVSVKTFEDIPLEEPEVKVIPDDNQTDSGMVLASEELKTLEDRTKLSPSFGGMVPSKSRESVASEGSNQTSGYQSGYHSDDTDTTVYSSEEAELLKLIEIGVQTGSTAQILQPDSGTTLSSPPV

cancer cell lines = test system: cancer cell lines; set-up: method as in PMID 32920363, PMID 29407956, PMID 36770936, PMID 36015154, PMID 35078049; conditions: cited from earlier work
BRAF^V600E [3] = test system: BRAF^V600E; set-up: method as in PMID 32920363, PMID 29407956, PMID 36770936, PMID 36015154, PMID 35078049; conditions: cited from earlier work
CDK2 = test system: CDK2; set-up: method as in PMID 32920363, PMID 29407956, PMID 36770936, PMID 36015154, PMID 35078049; conditions: cited from earlier work
EGFR [4] = molecular target: T1, EGFR; assay: EGFR inhibitory assay
VEGFR-2 [5] = molecular target: T2, VEGFR-2; assay: VEGFR-2 inhibitory assay
Experimental: Prepare all the solutions using autoclaved, deionized water and analytical grade reagents.
and store all the reagents at room temperature (unless indicated otherwise).
solution, add 5 mL ultra-pure water; 1×Kinase Assay Buffer: add 25 mL HEPES solution (1 M),
water, adjust pH to 7.5 and constant volume to 500 mL using ultrapure water; 4×Stop solution (40
mM): Mix 0.8 mL of the foregoing EDTA solution, 1 mL 10×Detection Buffer and 8.2 mL ultra-
pure water; 1×Detection Buffer: Mix 1 mL 10×Detection Buffer with 9 mL water; 4×VEGFR
μM) was added to 624 μL 1×Kinase Assay Buffer and mixed; 4×ULight™-labeled JAK1
concentration 5 μM) was added to 576 μL 1×Kinase Assay Buffer and mixed; 4×ATP Solution
2×substrate/ATP Mix: 560 μL foregoing 4×ULight™-labeled JAK1 and 560 μL 4×ATP solution
and mixed (prepared before use). The assays used an ULight-labeled peptide substrate and a
Europium-W1024-labeled antiphosphotyrosine antibody. The VEGFR-2 was purchased from
Carna Biosciences, Inc. (New York, USA). The 384-well plates were obtained from PerkinElmer.
5 μL 2×VEGFR-2 kinase solution (0.5 nM)
was added to 384-well plates homogeneous mixing and pre-reaction at room temperature for 30 min. Next, 2.5 μL 4×Ultra ULightTM-JAK-1(Tyr1023) Peptide (200 nM)/ATP (40 μM) was added to the corresponding wells of a 384-well plate. Negative control: 2.5 μL/well 4×substrate/ATP mixture and 7.5 μL 1×kinase assay buffer in 384-well plate well. Positive control:
μL/well 2×VEGFR-2 kinase solution was added to the 384-well plate, The final concentration of DMSO in the mixing system was 4%. After incubation at room temperature and dark for 60 min, 5 μL 4×stop solution was added to corresponding wells to react for 5 min and then 5 μL 4×detection mix was added to the corresponding wells of a 384-well plate. The mixture was centrifugally mixed and stayed for 60 min at room temperature for color development. The plate was read using a Envision plate reader. The inhibition rate (%) = (positive well reading-compound well reading)/(positive well reading-negative well reading)×100. The corresponding IC50 values were calculated using GraphPad Prism 5.0.

[6] = test system: four human cancer cell lines (A-549, MCF-7, Panc-1, HT-29); assay: Antiproliferative assay, average over the four cancer cell lines (GI50); type: cell-based; conditions: average of the four cancer cell lines
Experimental: See Supplementary Materials.
(§1) 4.2.1.2. Assay for antiproliferative effect
To explore the antiproliferative potential of compounds propidium iodide fluorescence assay was performed using different cell lines such as Panc-1 (pancreas cancer cell line), MCF-7 (breast […]
(§2) To calculate the total nuclear DNA, a fluorescent dye (propidium iodide, PI) is used which can attach to the DNA, thus offering a quick and precise technique. PI cannot pass through the cell membrane and its signal intensity can be considered as directly proportional to quantity of cellular
DNA. Cells whose cell membranes are damaged or have changed permeability are counted as dead ones. The assay was performed by seeding the cells of different cell lines at a density of 3000- […]
(§3) The medium was removed; the compounds were added to the plates at 10 μM concentrations (in 0.1% DMSO) in triplicates, followed by incubation for 48h. DMSO (0.1%) was used as control. After incubation, medium was removed followed by the addition of PI (25 μl, 50μg/mL in water/medium) to each well of the plates. At - 80 °C, the plates were allowed to freeze for 24 h, followed by thawing at 25 °C. A fluorometer (Polar-Star BMG Tech) was used to record the readings at excitation and emission wavelengths of 530 and 620 nm for each well. The percentage cytotoxicity of compounds was calculated using […]
Where ATC= Absorbance of treated cells and AC= Absorbance of control. […]
positive control in the assay.

BRAF^V600E [7] = molecular target: BRAF^V600E (Mus musculus, UniProt P28028, V585E); assay: BRAF^V600E inhibitory assay
BRAF^V600E (Mus musculus, UniProt P28028, V585E), sequence (P28028 whole entry V585E): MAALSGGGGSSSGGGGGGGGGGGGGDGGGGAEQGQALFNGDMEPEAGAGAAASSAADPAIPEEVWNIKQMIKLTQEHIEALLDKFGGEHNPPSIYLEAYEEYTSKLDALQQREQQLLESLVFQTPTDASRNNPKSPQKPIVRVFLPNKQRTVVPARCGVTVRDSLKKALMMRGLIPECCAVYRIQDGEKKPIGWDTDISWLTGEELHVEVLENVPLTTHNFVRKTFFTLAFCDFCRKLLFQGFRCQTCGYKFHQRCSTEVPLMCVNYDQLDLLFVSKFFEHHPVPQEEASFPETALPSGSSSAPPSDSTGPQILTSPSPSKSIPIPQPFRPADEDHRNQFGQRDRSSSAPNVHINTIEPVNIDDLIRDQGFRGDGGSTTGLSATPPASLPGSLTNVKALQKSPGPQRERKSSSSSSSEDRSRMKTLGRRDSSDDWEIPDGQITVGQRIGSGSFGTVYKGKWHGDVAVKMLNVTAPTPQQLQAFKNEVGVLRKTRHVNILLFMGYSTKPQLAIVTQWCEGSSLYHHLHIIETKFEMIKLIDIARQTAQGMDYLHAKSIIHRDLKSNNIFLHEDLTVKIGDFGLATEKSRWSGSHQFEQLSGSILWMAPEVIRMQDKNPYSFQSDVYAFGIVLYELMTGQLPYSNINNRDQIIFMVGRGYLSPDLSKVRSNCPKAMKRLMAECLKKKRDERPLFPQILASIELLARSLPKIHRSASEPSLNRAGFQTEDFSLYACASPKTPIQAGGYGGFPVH
Experimental: BRAFV600E inhibitory assay
V600E mutant BRAF kinase assay was performed to investigate the activity of tested compounds against BRAF. Mouse full-length GST-tagged BRAFV600E (7.5 ng, Invitrogen, PV3849) was pre-incubated with drug (1 µL) and assay dilution buffer (4 µL) for 60 min at 25 °C. In assay dilution buffer, a solution (5 µL) containing MgCl2 (30 mM), ATP (200 µM), recombinant human full length (200 ng) and N-terminal His-tagged MEK1 (Invitrogen) was added to start the assay, subsequent to incubation for 25 min at 25 °C. The assay was stopped using 5X protein denaturing buffer (LDS) solution (5 µL). To further denature the protein, heat (70° C) was applied for 5 min.
10 µL of each reaction was loaded into the precast plates and electrophoresis was allowed to proceed. After completion of electrophoresis, the front part of the precast gel plate (holding hot ATP) was cut and afterwards cast-off. The dried gel was developed using a phosphor screen.

[8] = test system: colon cancer (HT-29) cell line; assay: Antiproliferative assay, HT-29; type: cell-based; conditions: Homo sapiens, read-out: Antiproliferative Activity IC50 ± SEM, HT-29
Experimental: as §1
(§4) To explore the antiproliferative potential of compounds propidium iodide fluorescence assay was performed using different cell lines such as Panc-1 (pancreas cancer cell line), MCF-7 (breast cancer cell line), HT-29 (colon cancer cell line) and A-549 (epithelial cancer cell line), respectively.
as §2
as §3, with “DNA. Cells whose cell membranes are damaged or have changed permeability are counted as dead ones. The assay was performed by seeding the cells of different cell lines at a density of 3000-7500 cells/well (in200μl medium) in culture plates followed by incubation for 24h at 37 °C in humidified 5%CO2/95% air atmospheric conditions. The medium” for “The medium”
(§5) Where ATC= Absorbance of treated cells and AC= Absorbance of control. Erlotinib was used as positive control in the assay.

caspase-3 = assay: Caspase 3 assay in A-549 cells; type: cell-based, human; conditions: for Caspase-3 Conc: untreated control 66 pg/mL; for Caspase-3 Fold Change: vs untreated control
Experimental: Caspases play a crucial function in the induction and completion of apoptosis. Caspase-3 is an essential caspase that cleaves different proteins in cells, resulting in apoptosis. […]
4.2.5. Caspase-3 activation assay
Allow all reagents to reach room temperature before use. Gently mix all liquid reagents prior to use. Determine the number of 8-well strips needed for the assay. Insert these in the frame(s) for current use. Add 100 μl of the Standard Diluent Buffer to the zero standard wells. Well(s) reserved for chromogen blank should be left empty. Add 100 μl of standards and controls or diluted samples to the appropriate microtiter wells. The sample dilution chosen should be optimized for each experimental system. Tap gently on side of plate to mix. Cover wells with plate cover and incubate for 2 hours at room temperature. Thoroughly aspirate or decant solution from wells and discard the liquid, Wash wells 4 times. Pipette 100 μl of Caspase-3 (Active) Detection Antibody solution into each well except the chromogen blank(s). Tap gently on the side of the plate to mix. Cover plate with plate cover and incubate for 1 hour at room temperature. Thoroughly aspirate or decant solution from wells and discard the liquid, Wash wells 4 times. Add 100 μl Anti-Rabbit IgG HRP Working Solution to each well except the chromogen blank(s). Prepare the working dilution as described in Preparing IgG HRP. Cover wells with the plate cover and incubate for 30 minutes at room temperature. Thoroughly aspirate or decant solution from wells and discard the liquid. Wash wells 4 times. Add 100 μl of Stabilized Chromoge n to each well. The liquid in the wells will begin to turn blue. Incubate for 30 minutes at room temperature and in the dark. The incubation time for chromogen substrate is often determined by the microtiter plate reader used. Many plate readers have the capacity to record a maximum optical density (O.D.) of 2.0. The O.D. values should be monitored, and the substrate reaction stopped before the O.D. of the positive wells exceeds the limits of the instrument. The O.D. values at 450 nm can only be read after the Stop Solution has been added to each well. If using a reader that records only to 2.0 O.D., stopping the assay after […]
Add 100 μl of Stop Solution to each well. Tap side of plate gently to mix. The solution in the wells should change from blue to yellow. Read the absorbance of each well at 450 nm having blanked the plate reader against a chromogen blank composed of 100 μl each of Stabilized Chromogen and Stop Solution. Read the plate within 2 hours after adding the Stop Solution. Use a curve fitting software to generate the standard curve. A four-parameter algorithm provides the best standard curve fit. Read the concentrations for unknown samples and controls from the standard curve. Multiply value(s) obtained for sample(s) by the appropriate dilution factor to correct for the dilution in step 3. Samples producing signals greater than that of the highest standard should be diluted in Standard Diluent Buffer and reanalyzed.

[9] = Cell viability assay (MTT) on MCF-10A; type: cell-based; conditions: human, MCF-10A mammary gland epithelial cells, MCF-10A cells, four days
Experimental: To assess the viability of compounds IV and Va–i, the human mammary gland epithelial (MCF-10A) cell line was exploited. Compounds IV and Va–i were cultured for four days on MCF-10A cells before being evaluated for vitality using the MTT assay.
To test the viability of the new compounds, the human mammary gland epithelial (MCF-10A) cell line was used. Compounds IV and Va–i were incubated on MCF-10A cells for four days before being tested for viability using the MTT assay. See Supplementary Materials.
4.2. Biological evaluation
4.2.1. Cytotoxic activity using MTT Assay and evaluation of IC50
MTT assay was performed to investigate the effect of the synthesized compounds on mammary epithelial cells (MCF-10A). The cells were propagated in medium consisting of Ham's F-12 medium/ Dulbecco's modified Eagle's medium (DMEM) (1:1) supplemented with 10% foetal calf serum, 2 mM glutamine, insulin (10 μg/mL), hydrocortisone (500 ng/mL) and epidermal growth factor (20 ng/mL). Trypsin ethylenediamine tetra acetic acid (EDTA) was used to passage the cells after every 2-3 days. 96-well flat-bottomed cell culture plates were used to seed the cells at a density of 10^4 cells mL-1. The medium was aspirated from all the wells of culture plates after 24 h followed by the addition of synthesized compounds (in 200 μL medium to yield a final concentration of 0.1% (v/v) dimethyl sulfoxide) into individual wells of the plates. Four wells were designated to a single compound. The plates were allowed to incubate at 37°C for 96 h. Afterwards, the medium was aspirated and 3-[4,5-dimethylthiazol-2-yl]-2,5-diphenyltetrazolium bromide (MTT) (0.4 mg/mL) in medium was added to each well and subsequently incubated for 3 h. The medium was aspirated and 150 μL dimethyl sulfoxide (DMSO) was added to each well. The plates were vortexed followed by the measurement of absorbance at 540 nm on a microplate reader. The results were presented as inhibition (%) of proliferation in contrast to controls comprising 0.1%

[10] = test system: pancreatic cancer (Panc-1) cell line; assay: Antiproliferative assay, Panc-1; type: cell-based; conditions: Homo sapiens, read-out: Antiproliferative Activity IC50 ± SEM, Panc-1
Experimental: as §1, §4, §2
as §3, with “DNA. Cells whose cell membranes are damaged or have changed permeability are counted as dead ones. The assay was performed by seeding the cells of different cell lines at a density of 3000-7500 cells/well (in200μl medium) in culture plates followed by incubation for 24h at 37 °C in humidified 5%CO2/95% air atmospheric conditions. The medium” for “The medium”
as §5

[11] = test system: human epithelial (A-549) cancer cell line; assay: Antiproliferative assay, A-549; type: cell-based; conditions: A549, read-out: Antiproliferative Activity IC50 ± SEM, A-549
Experimental: as §1, §4, §2
as §3, with “DNA. Cells whose cell membranes are damaged or have changed permeability are counted as dead ones. The assay was performed by seeding the cells of different cell lines at a density of 3000-7500 cells/well (in200μl medium) in culture plates followed by incubation for 24h at 37 °C in humidified 5%CO2/95% air atmospheric conditions. The medium” for “The medium”
as §5

[12] = test system: breast cancer (MCF-7) cell line; assay: Antiproliferative assay, MCF-7; type: cell-based; conditions: Homo sapiens, MCF7; read-out: Antiproliferative Activity IC50 ± SEM, MCF-7
Experimental: as §1, §4, §2
as §3, with “DNA. Cells whose cell membranes are damaged or have changed permeability are counted as dead ones. The assay was performed by seeding the cells of different cell lines at a density of 3000-7500 cells/well (in200μl medium) in culture plates followed by incubation for 24h at 37 °C in humidified 5%CO2/95% air atmospheric conditions. The medium” for “The medium”
as §5

[13] = four cancer cell lines, read-out: GI50 vs four cancer cell lines

| Compound | IC50 (BRAF^V600E [3]) | GI50 (cancer cell lines; [13]) | IC50 (EGFR [4]) | IC50 (VEGFR-2 [5]) | GI50 [6] | IC50 (BRAF^V600E [7]) | IC50 [8] | viability at 96 h, 50 µM [9] | IC50 [10] | melting point | IC50 [11] | IC50 [12] | further results |
| --- | --- | --- | --- | --- | --- | --- | --- | --- | --- | --- | --- | --- | --- |
| c1nc(Nc2ccc(N3CCOCC3)cc2)cc(Oc2ccc3[nH]ccc3c2)n1 [Compound 4] | – | – | – | – | – | – | – | – | – | – | – | – | IC50 (EGFR [1]): 7 nM; IC50 (VEGFR-2 [2]): 1200 nM |
| Cc1c2cc(Cl)ccc2n2cc(Cc3ccccc3)[nH]c(=O)c12 [Compound 6] | 100 nM | – | – | – | – | – | – | – | – | – | – | – | GI50 (cancer cell lines; three cancer cell lines, read-out: GI50 vs three cancer cell lines): 500 nM |
| Cc1c2n(c3ccc(Cl)cc13)C(=O)CN(CCc1ccc(N3CCOCC3)cc1)C2=O [Compound 7] | 150 nM | 1100 nM | – | – | – | – | – | – | – | – | – | – | – |
| CCOCc1c2n(c3ccc(Cl)cc13)C(=O)CN(CCc1ccc(N3CCOCC3)cc1)C2=O [Compound 9] | 45 nM | 35 nM | – | – | – | – | – | – | – | – | – | – | – |
| Cc1c(C(=O)NCCc2ccc(N3CCCC3C)cc2)[nH]c2ccc(Cl)cc12 (stereo not shown) [Compound 10] | – | 950 nM | – | – | – | – | – | – | – | – | – | – | IC50 (CDK2): 13 nM |
| CCc1c(C(=O)NCCc2ccc(N3CCOCC3)cc2)[nH]c2ccc(C)cc12 [Compound 12] | – | 37 nM | – | – | – | – | – | – | – | – | – | – | IC50 (CDK2): 16 nM |
| CCOCc1c(C(=O)NCC(c2ccccc2)c2c(-c3ccccc3)[nH]c3ccccc23)[nH]c2ccc(Cl)cc12 (stereo not shown) [Compound Vh, 5-Chloro-3-(ethoxymethyl)-N-(2-phenyl-2-(2-phenyl-1H-indol-3-yl)ethyl)-1H-indole-2-carboxamide] | – | – | 85 ± 7 nM | 3.25 ± 0.25 nM | 37 nM | 89 ± 7 nM | 38 ± 3 nM | 90% | 36 ± 3 nM | 210 to 212 °C | 34 ± 3 nM | 38 ± 3 nM | Caspase-3 Conc (caspase-3): 460 ± 4 pg/mL; Caspase-3 Fold Change (caspase-3): 7 |
| O=C(NCC(c1ccccc1)c1c(-c2ccccc2)[nH]c2ccccc12)c1[nH]c2ccc(Cl)cc2c1CO (stereo not shown) [Ve, 5-Chloro-3-(hydroxymethyl)-N-(2-phenyl-2-(2-phenyl-1H-indol-3-yl)ethyl)-1H-indole-2-carboxamide] | – | – | 94 ± 7 nM | 1.1 ± 0.08 nM | 44 nM | 97 ± 8 nM | 45 ± 4 nM | 90% | 44 ± 4 nM | 132 to 134 °C | 42 ± 4 nM | 46 ± 4 nM | Caspase-3 Conc (caspase-3): 462 ± 4 pg/mL; Caspase-3 Fold Change (caspase-3): 7 |
| O=C(NCC(c1ccccc1)c1c(-c2ccccc2)[nH]c2ccccc12)c1[nH]c2ccc(Cl)cc2c1-c1ccccc1 (stereo not shown) [Vf, 5-Chloro-3-phenyl-N-(2-phenyl-2-(2-phenyl-1H-indol-3-yl)ethyl)-1H-indole-2-carboxamide] | – | – | 103 ± 8 nM | 2.5 ± 0.2 nM | 48 nM | 107 ± 9 nM | 48 ± 4 nM | 91% | 48 ± 4 nM | 131 to 133 °C | 46 ± 4 nM | 49 ± 4 nM | – |
